Like-named read-outs stand apart in the source and are kept apart here.
Legend:
[1] = biological target: T1, full-length human CSF-1R receptor (Homo sapiens, UniProt P07333); experiment: In vitro inhibition of CSF-1R receptor tyrosine phosphorylation in transfected HEK293H cells stimulated with MCSF; type: cell-based; settings: HEK293-H, tested at about 1 μM, read-out: pCSF1R percent inhibition
T1 construct: transfected with the full-length human CSF-1R receptor cloned in house; expressed in transfected cells; host or cells: HEK293H (Invitrogen Cat. #11631017)
Protocol: The lysate was then transferred to total CSF-1R antibody coated 96-well plates that had already been blocked with 3% Blocker A from Mesoscale discovery (MSD) for 2 hours and washed afterwards. Lysates were incubated overnight at 4° C. and the plates were then washed 4× with MSD Tris Wash Buffer. […] The plates were read on the Sector 6000 instrument (MSD). Raw data was imported in Abase and EC50s calculated with XL-fit data analysis software.

[2] = biological target: T2, cytoplasmic domain of the human CSF-1R (Homo sapiens, UniProt P07333); experiment: In vitro kinase assay for colony stimulating factor-1 receptor (AlphaScreen); type: biochemical; settings: tested at about 1 μM, read-out: CSF-1R percent inhibition
T2 construct: Recombinant protein corresponding to the cytoplasmic domain of the human CSF-1R; purchased Invitrogen Corporation, Carlsbad, Calif; PV3249
T2 sequence (P07333 539-972 limits assumed): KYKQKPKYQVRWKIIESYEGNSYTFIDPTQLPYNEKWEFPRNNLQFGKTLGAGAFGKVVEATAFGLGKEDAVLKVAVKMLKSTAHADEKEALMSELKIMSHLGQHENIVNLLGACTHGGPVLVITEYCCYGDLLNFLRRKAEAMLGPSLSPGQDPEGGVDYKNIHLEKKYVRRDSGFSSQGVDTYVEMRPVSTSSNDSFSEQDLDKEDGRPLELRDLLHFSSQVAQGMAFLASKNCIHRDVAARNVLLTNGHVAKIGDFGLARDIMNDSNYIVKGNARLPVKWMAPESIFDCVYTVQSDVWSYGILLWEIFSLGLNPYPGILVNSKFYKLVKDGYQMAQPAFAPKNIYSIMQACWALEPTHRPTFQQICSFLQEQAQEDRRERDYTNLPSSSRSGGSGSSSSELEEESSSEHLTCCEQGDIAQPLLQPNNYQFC
Method in brief: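 AlphaScreen read-out (PT66 anti-pTyr acceptor beads, streptavidin donor beads, overnight incubation) measured phosphorylated peptide product. The product was formed by the human CSF-1R cytoplasmic domain at 4 nM with 1 µM ATP in Mg2+/Mn2+ HEPES buffer, pH 7.5. Compound dilution series were 3-fold, starting at 25 µM.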

[3] = test system: MNFS60 (murine AML cells); experiment: Cell viability assay in MCSF dependent MNFS60 cells (Cell Titer Glo); type: cell-based; settings: Mus musculus, tested at about 1 μM, read-out: M-NFS-60 CP percent inhibition
Method in brief: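 EC50 values reflect MCSF-driven (10 ng/ml final) proliferation over 72 hrs at 37° C., read by CellTiter-Glo. Each condition was run in triplicate.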

kinase domain of cKIT = biological target: T3, kinase domain of cKIT (Homo sapiens, UniProt P10721); experiment: Inhibition of cKIT kinase signaling in an in vitro biochemical assay (alphascreen); settings: tested at about 1 μM, read-out: cKit percent inhibition
T3 construct: The kinase domain of cKIT was assayed in 50 mM Hepes; purchased Upstate 14-559

kinase domain of PDGFRβ = biological target: T4, kinase domain of PDGFRβ (Homo sapiens, UniProt P09619); experiment: Inhibition of PDGFRb kinase signaling in an in vitro biochemical assay (alphascreen); settings: tested at about 1 μM, read-out: PDGFRβ percent inhibition
T4 construct: The kinase domain of PDGFRβ was assayed in 50 mM Hepes; purchased Invitrogen P3082
T4 sequence (P09619 600-962 limits assumed): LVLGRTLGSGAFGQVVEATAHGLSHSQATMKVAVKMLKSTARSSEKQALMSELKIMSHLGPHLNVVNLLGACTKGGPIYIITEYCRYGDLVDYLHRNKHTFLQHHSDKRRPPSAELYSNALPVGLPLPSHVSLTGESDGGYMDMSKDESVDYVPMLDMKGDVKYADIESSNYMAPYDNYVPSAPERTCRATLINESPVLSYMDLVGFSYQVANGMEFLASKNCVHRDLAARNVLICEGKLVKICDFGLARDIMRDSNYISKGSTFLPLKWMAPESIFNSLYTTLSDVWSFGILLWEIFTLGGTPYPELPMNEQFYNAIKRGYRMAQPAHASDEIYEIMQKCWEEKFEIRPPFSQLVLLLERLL

T1 sequence (P07333 20-972): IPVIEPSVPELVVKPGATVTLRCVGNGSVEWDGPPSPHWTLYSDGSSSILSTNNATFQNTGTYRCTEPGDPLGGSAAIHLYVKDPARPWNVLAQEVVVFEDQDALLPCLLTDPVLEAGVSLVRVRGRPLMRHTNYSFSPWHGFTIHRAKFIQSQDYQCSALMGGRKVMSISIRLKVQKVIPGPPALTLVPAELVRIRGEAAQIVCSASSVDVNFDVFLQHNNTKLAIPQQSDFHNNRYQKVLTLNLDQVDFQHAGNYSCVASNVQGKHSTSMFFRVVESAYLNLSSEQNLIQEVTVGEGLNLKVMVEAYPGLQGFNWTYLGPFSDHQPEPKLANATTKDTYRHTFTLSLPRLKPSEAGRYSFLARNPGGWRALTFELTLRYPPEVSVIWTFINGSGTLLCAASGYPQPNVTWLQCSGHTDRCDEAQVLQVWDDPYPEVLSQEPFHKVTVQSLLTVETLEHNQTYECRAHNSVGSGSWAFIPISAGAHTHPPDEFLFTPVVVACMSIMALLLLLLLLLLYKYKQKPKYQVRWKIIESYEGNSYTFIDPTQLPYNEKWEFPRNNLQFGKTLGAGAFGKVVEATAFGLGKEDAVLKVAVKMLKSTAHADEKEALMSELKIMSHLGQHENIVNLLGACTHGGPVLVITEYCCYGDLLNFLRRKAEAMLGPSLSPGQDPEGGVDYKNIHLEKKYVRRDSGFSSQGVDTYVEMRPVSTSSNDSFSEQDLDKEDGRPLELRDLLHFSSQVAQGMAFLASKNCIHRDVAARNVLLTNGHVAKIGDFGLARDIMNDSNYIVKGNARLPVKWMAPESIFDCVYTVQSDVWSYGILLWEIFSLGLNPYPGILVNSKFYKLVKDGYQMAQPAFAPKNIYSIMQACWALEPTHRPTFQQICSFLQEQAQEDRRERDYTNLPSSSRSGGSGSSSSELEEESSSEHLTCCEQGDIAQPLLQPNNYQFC
T3 sequence (P10721 589-937 limits assumed): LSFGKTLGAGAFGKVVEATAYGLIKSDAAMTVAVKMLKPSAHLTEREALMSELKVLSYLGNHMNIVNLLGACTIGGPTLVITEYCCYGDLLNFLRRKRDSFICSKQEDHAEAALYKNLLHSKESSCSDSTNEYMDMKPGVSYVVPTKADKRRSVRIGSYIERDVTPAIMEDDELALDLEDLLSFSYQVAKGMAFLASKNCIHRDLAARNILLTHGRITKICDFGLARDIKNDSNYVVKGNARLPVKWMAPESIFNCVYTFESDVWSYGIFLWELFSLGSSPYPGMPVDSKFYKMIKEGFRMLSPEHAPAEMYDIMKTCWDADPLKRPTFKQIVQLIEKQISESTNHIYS

inhibition at 1 µM ([1]; HEK293H cells) [%]	inhibition at 1 µM [2] [%]	inhibition at 1 µM (kinase domain of cKIT) [%]	inhibition at 1 µM (kinase domain of PDGFRβ) [%]	inhibition at 1 µM ([1]; compounds of Table 3) [%]	inhibition at 1 µM ([2]; compounds of Table 3) [%]	inhibition at 1 µM (kinase domain of cKIT; compounds of Table 3) [%]	inhibition at 1 µM (kinase domain of PDGFRβ; compounds of Table 3) [%]	Compound	inhibition at 1 µM ([3]; MCSF dependent MNFS60 cells) [%]	inhibition at 1 µM ([3]; compounds of Table 3) [%]
96	100	100	98	–	–	–	–	Cn1cc(-c2cc(Oc3ccc4nc(NCC5CCCCC5)sc4c3)ccn2)cn1 [Example 340, N-(cyclohexylmethyl)-6-(2-(1-methyl-1H-pyrazol-4-yl)pyridin-4-yloxy)benzo[d]thiazol-2-amine]	100	–
–	–	–	–	99	100	9	49	Cc1c[nH]c(-c2cc(Oc3ccc4nc(N[C@@H]5CCCC[C@H]5O)sc4c3)ccn2)n1 [Example 231, (1R,2R)-2-(6-(2-(4-methyl-1H-imidazol-2-yl)pyridin-4-yloxy)benzo[d]thiazol-2-ylamino)cyclohexanol]	–	100

From patent publication US8173689B2 (Novartis AG, priority 2006, dated 2012)
